In USRE46630E1, “Substituted 4-pyridones and their use as inhibitors of neutrophil elastase activity” (Boehringer Ingelheim International GmbH, priority 2012, dated 2017):

target: T1, Human neutrophil elastase (Homo sapiens, UniProt P08246); test: Human Neutrophil Elastase Assay; assay type: biochemical; conditions: Neutrophil Elastase assay; substrate MeOSuc-Ala-Ala-Pro-Val-AMC 250 μM; 15 min preincubation, 60 min incubation at room temperature; pH 7.5
T1 construct: purchased Calbiochem 324681
T1 sequence (P08246 30-267): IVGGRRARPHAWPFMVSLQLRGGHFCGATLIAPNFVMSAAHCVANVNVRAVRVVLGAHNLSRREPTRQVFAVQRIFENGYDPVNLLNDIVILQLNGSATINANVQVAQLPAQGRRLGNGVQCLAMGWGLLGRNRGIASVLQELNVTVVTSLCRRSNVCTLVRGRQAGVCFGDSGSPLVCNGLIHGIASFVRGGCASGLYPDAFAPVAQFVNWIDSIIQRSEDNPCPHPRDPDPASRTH
Experimental: Human Neutrophil Elastase Assay
All other materials were of the highest grade commercially available.
The following buffers were used: Compound buffer: 100 mM Tris, 500 mM NaCl, adjusted to pH 7.5; Assay buffer: 100 mM Tris, 500 mM NaCl, adjusted to pH 7.5, containing 0.01% BSA.
Assay conditions: Test compounds were prediluted in DMSO and subsequently in compound buffer (5% DMSO final). […] After inactivation of the enzyme, fluorescence intensities were measured at 380 nm excitation and 460 nm emission wavelengths.
Each plate contains wells with a high value control (DMSO+enzyme+substrate) and wells with a low value control (DMSO+inactivated enzyme+substrate). […] Means of low values were taken as 0%, means of high values as 100%.

Row | Compound | IC50
1 | Cc1c(-c2ccnc(C(F)(F)F)c2)c(=O)c(C(=O)NCC#N)cn1C(C)c1ccc(C#N)cc1 (stereo not shown) [Example 9.13] | 1.7 nM
2 | Cc1c(-c2ccnc(C(F)(F)F)c2)c(=O)c(C(=O)NCCF)cn1C(C)c1ccc(C#N)cc1 (stereo not shown) [Example 9.44] | 9.8 nM
3 | Cc1c(-c2cccc(C(F)(F)F)c2)c(=O)c(C(=O)NCc2ccc([S+](C)[O-])cc2)cn1Cc1ccc(C#N)cc1 (stereo not shown) [Example 1.10] | 1.1 nM
4 | Cc1c(-c2ccnc(C(F)(F)F)c2)c(=O)c(C(=O)NCC2CCCCO2)cn1C(C)c1ccc(C#N)cc1 (stereo not shown) [Example 9.37] | 32.9 nM
5 | COCCCNC(=O)c1cn(Cc2ccc(C#N)cc2)c(C)c(-c2cccc(C(F)(F)F)c2)c1=O [Example 1.3] | 13 nM
6 | Cc1noc(CNC(=O)c2cn(C(C)c3ccc(C#N)cc3)c(C)c(-c3cccc(C(F)F)c3)c2=O)n1 (stereo not shown) [Example 8.2] | 1.9 nM
7 | Cc1c(-c2ccnc(C(F)(F)F)c2)c(=O)c(C(=O)NCCC(C)O)cn1C(C)c1ccc(C#N)cc1 (stereo not shown) [Example 9.60] | 5.7 nM
8 | Cc1c(-c2cccc(C(F)(F)F)c2)c(=O)c(C(=O)NCCCCO)cn1Cc1ccc(C#N)cc1 [Example 1.20] | 10.6 nM
9 | CNC(=O)c1cn(Cc2ccc(C#N)cn2)c(C)c(-c2ccnc(C(F)(F)F)c2)c1=O [Example 44, 1-(5-Cyano-pyridin-2-ylmethyl)-2-methyl-4-oxo-2′-trifluoromethyl-1,4-dihydro-[3,4′]bipyridinyl-5-carboxylic acid methylamide] | 94.6 nM
10 | Cc1c(-c2cccc(C(F)(F)F)c2)c(=O)c(C(=O)NCc2ccc(S(C)(=O)=O)cn2)cn1Cc1ccc(C#N)cc1 [Example 4.1, 1-(4-cyano-benzyl)-6-methyl-4-oxo-5-(3-trifluoromethyl-phenyl)-1,4-dihydro-pyridine-3-carboxylic acid (5-methanesulfonyl-pyridin-2-ylmethyl)-amide] | < 1 nM
11 | COCCNC(=O)c1cn(Cc2ccc(C#N)cc2)c(C)c(-c2cccc(C(F)(F)F)c2)c1=O [Example 1.5] | 10.4 nM
12 | Cc1c(-c2cc(C(F)(F)F)ccn2)c(=O)c(C(=O)NCc2ccc(S(C)(=O)=O)cc2)cn1Cc1ccc(C#N)cc1 [Example 6.12] | 3.8 nM
13 | Cc1c(-c2cccc(C(F)(F)F)c2)c(=O)c(C(=O)NCCF)cn1C(C)c1ccc(C#N)cn1 (stereo not shown) [Example 47.6] | 12 nM
14 | Cc1c(-c2ccnc(C(F)(F)F)c2)c(=O)c(C(=O)NCCN(C)C)cn1C(C)c1ccc(C#N)cc1 (stereo not shown) [Example 9.10] | 12.4 nM
15 | Cc1c(-c2cccc(C(F)(F)F)c2)c(=O)c(C(=O)NCC2(O)CCN(C)CC2)cn1Cc1ccc(C#N)cc1 [Example 1.8] | 83 nM
16 | Cc1c(-c2cccc(C(F)(F)F)c2)c(=O)c(C(=O)NCc2ccc(S(C)(=O)=O)cn2)cn1Cc1ccncc1 [Example 4.3] | 58 nM
17 | Cc1c(-c2ccnc(C(F)(F)F)c2)c(=O)c(C(=O)NCC(=O)OC(C)C)cn1C(C)c1ccc(C#N)cc1 (stereo not shown) [Example 9.31] | 18.7 nM
18 | CCOCCNC(=O)c1cn(C(C)c2ccc(C#N)cc2)c(C)c(-c2cccc(C(F)F)c2)c1=O (stereo not shown) [Example 8.24] | 1.7 nM
19 | Cc1c(-c2ccnc(C(F)(F)F)c2)c(=O)c(C(=O)NC2(C#N)CC2)cn1C(C)c1ccc(C#N)cc1 (stereo not shown) [Example 9.45] | 5.3 nM
20 | Cc1c(-c2ccnc(C(F)(F)F)c2)c(=O)c(C(=O)NC2CCNC2=O)cn1C(C)c1ccc(C#N)cc1 (stereo not shown) [Example 9.4] | 4.1 nM
21 | COCC(C)(C#N)NC(=O)c1cn(C(C)c2ccc(C#N)cc2)c(C)c(-c2ccnc(C(F)(F)F)c2)c1=O (stereo not shown) [Example 9.49] | 150 nM
22 | Cc1c(-c2cccc(C(F)(F)F)c2)c(=O)c(C(=O)N[C@H]2CCC(=O)NC2)cn1Cc1ccc(C#N)cc1 [Example 1.53] | 9 nM

Row | Compound | IC50
23 | Cc1c(-c2cccc(C(F)(F)F)c2)c(=O)c(C(=O)NCCc2ccccn2)cn1Cc1ccc(C#N)cc1 [Example 1.43] | 8.9 nM
24 | Cc1c(-c2ccnc(C(F)(F)F)c2)c(=O)c(C(=O)NCC2CC(O)C2)cn1C(C)c1ccc(C#N)cc1 (stereo not shown) [Example 9.47] | 14.9 nM
25 | COCCCNC(=O)c1cn(C(C)c2ccc(C#N)cc2)c(C)c(-c2cccc(C(F)F)c2)c1=O (stereo not shown) [Example 8.25] | 1.8 nM
26 | Cc1c(-c2cccc(C(F)F)c2)c(=O)c(C(=O)NCCCCO)cn1C(C)c1ccc(C#N)cc1 (stereo not shown) [Example 8.13] | 3.2 nM
27 | Cc1c(-c2cccc(C(F)(F)F)c2)c(=O)c(C(=O)NCc2ccc(S(C)(=O)=O)cn2)cn1Cc1ccc(C#N)cc1F [Example 4.9] | < 1 nM
28 | Cc1c(-c2ccnc(C(F)(F)F)c2)c(=O)c(C(=O)NCC(C)O)cn1C(C)c1ccc(C#N)cc1 (stereo not shown) [Example 9.62] | 12 nM
29 | Cc1c(-c2cccc(C(F)(F)F)c2)c(=O)c(C(=O)NCC(O)CO)cn1Cc1ccc(C#N)cc1 (stereo not shown) [Example 1.17, 1-(4-Cyano-benzyl)-6-methyl-4-oxo-5-(3-trifluoromethyl-phenyl)-1,4-dihydro-pyridine-3-carboxylic acid (2,3-dihydroxy-propyl)-amide] | 21 nM
30 | CNC(=O)c1cn(Cc2ccc(C#N)cc2S(C)(=O)=O)c(C)c(-c2cccc(C(F)(F)F)c2)c1=O [Example 20] | 8.6 nM
31 | Cc1c(-c2cccc(C(F)(F)F)c2)c(=O)c(C(=O)NCCCO)cn1Cc1ccc(C#N)cc1 [Example 1.9] | 8.4 nM
32 | Cc1c(-c2cccc(C(F)(F)F)c2)c(=O)c(C(=O)NCCCS(C)(=O)=O)cn1Cc1ccc(C#N)cc1 [Example 1.16] | 7.4 nM
33 | Cc1c(-c2cccc(C(F)(F)F)c2)c(=O)c(C(=O)NC2CCOCC2)cn1Cc1ccc(C#N)cc1 [Example 1.29] | 31.6 nM
34 | CCNC(=O)c1cn(Cc2ccc(C#N)cc2S(C)(=O)=O)c(C)c(-c2cccc(C(F)(F)F)c2)c1=O [Example 21] | 4.6 nM
35 | Cc1c(-c2cccc(C(F)(F)F)c2)c(=O)c(C(=O)NCc2ccc(S(C)(=O)=O)cc2)cn1Cc1ccccc1 [Example 2.1, 1-Benzyl-6-methyl-4-oxo-5-(3-trifluoromethyl-phenyl)-1,4-dihydro-pyridine-3-carboxylic acid 4-methanesulfonyl-benzylamide] | 55.3 nM
36 | Cc1cc(-c2c(C)n(Cc3ccc(C#N)cc3)cc(C(=O)NCc3ccc(S(C)(=O)=O)cc3)c2=O)ccn1 [Example 6.3] | 9.1 nM
37 | CNC(=O)c1cn(C(C)c2ccc(C#N)cc2)c(C)c(-c2cccc(C(F)F)c2)c1=O (single isomer, unassigned) [Example 8A] | 1.2 nM
38 | CNC(=O)c1cn(Cc2ccc(Cl)cc2)c(C)c(-c2cccc(C(F)(F)F)c2)c1=O [Example 3.4] | 29.1 nM
39 | Cc1c(-c2ccnc(C(F)(F)F)c2)c(=O)c(C(=O)NCc2ccc(S(C)(=O)=O)cc2)cn1Cc1ccc(C#N)cc1 [Example 6.11] | < 1 nM
40 | Cc1c(-c2ccnc(C(F)(F)F)c2)c(=O)c(C(=O)NC2COCC2O)cn1C(C)c1ccc(C#N)cc1 (stereo not shown) [Example 9.42] | 29.9 nM
41 | Cc1c(-c2cccc(C(F)(F)F)c2)c(=O)c(C(=O)NCC[N+](C)(C)C)cn1Cc1ccc(C#N)cc1 [Example 12.1, (2-{[1-(4-Cyano-benzyl)-6-methyl-4-oxo-5-(3-trifluoromethyl-phenyl)-1,4-dihydro-pyridine-3-carbonyl]-amino}-ethyl)-trimethyl-ammonium chloride] | 35.9 nM
42 | Cc1c(-c2cccc(C(F)(F)F)c2)c(=O)c(C(=O)NC(CO)CO)cn1Cc1ccc(C#N)cc1 [Example 1.19] | 48.1 nM
43 | Cc1c(-c2cccc(C(F)F)c2)c(=O)c(C(=O)NCc2ccnn2C)cn1C(C)c1ccc(C#N)cc1 (stereo not shown) [Example 8.16] | 2.4 nM
